Results: patent US8822449B2, “Substituted aminoindanes and analogs thereof, and the pharmaceutical use thereof” (Sanofi, priority 2008, dated 2014)

What follows are compounds tested against T1, sodium-proton exchanger of subtype 3 (NHE3) (Homo sapiens, UniProt P48764) (assay: Recovery of intracellular pH (pHi) after acidification in LAP1 cells stably expressing NHE3 (BCECF fluorescence, FLIPR)). Settings: LAP1 cells stably expressing NHE3; pH recovery after acidification; range 1 is % inhibition at 10 μM; read-out: Activity range (inhibitory effect on NHE3).
T1 construct: expressed in transfected cells
T1 sequence (P48764 26-834): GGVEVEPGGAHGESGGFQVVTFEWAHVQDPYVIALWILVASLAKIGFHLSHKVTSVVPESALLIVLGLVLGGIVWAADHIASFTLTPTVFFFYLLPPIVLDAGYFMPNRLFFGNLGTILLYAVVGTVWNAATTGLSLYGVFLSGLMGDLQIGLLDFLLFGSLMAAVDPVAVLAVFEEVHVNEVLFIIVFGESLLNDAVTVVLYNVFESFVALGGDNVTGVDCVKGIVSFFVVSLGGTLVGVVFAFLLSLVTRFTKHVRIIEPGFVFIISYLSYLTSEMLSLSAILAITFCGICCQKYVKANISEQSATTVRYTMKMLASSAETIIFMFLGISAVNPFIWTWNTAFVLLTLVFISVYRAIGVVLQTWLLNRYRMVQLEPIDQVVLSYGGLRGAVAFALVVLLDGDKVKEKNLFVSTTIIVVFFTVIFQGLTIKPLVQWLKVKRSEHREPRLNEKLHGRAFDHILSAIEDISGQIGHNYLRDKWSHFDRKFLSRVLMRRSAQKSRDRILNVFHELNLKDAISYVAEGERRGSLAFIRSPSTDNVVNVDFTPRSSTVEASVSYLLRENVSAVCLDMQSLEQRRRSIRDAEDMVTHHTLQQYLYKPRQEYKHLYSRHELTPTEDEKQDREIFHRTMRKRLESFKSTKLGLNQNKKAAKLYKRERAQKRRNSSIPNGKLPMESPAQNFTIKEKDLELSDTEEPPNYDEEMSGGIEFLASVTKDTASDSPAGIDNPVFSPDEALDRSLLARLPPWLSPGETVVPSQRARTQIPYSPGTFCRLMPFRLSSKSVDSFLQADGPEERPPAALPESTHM
Type: cell-based

Inhibition at 10 µM, 20 to 50%:
CS(=O)(=O)c1ccc(O[C@H]2c3cc(Cl)cc(Cl)c3C[C@@H]2N2CCN3CCC[C@H]3C2)cc1 [Example 208, (S)-2-[(S)-4-(S)-chloro-6-chloro-1-(4-methanesulfonylphenoxy)indan-2-yl]octahydropyrrolo[1,2-a]pyrazine]
N#Cc1cc(Cl)ccc1O[C@H]1c2ccccc2CC[C@@H]1N1CCC[C@@H](N)C1 (racemic) [Example 366, 2-[rac-trans-(1,2)-2-((R)-3-aminopiperidin-1-yl)-1,2,3,4-tetrahydronaphthalen-1-yloxy]-5-chlorobenzonitrile]
COCCN(C)[C@H]1Cc2c(Cl)cc(Cl)cc2[C@@H]1Oc1ccc(S(C)(=O)=O)cc1 [Example 218, [trans-(1S,2S)-4,6-dichloro-1-(4-methanesulfonylphenoxy)indan-2-yl]-(2-methoxyethyl)-methylamine]
CS(=O)(=O)c1ccc(O[C@H]2c3ccccc3C[C@@H]2N2CCC[C@@H](NC(=O)C(F)(F)F)C2)cc1 [Example 354, 2,2,2-trifluoro-N-{(R)-1-[trans-(1S,2S)-1-(4-methanesulfonylphenoxy)indan-2-yl]piperidin-3-yl}acetamide]
COc1cccc(OC)c1O[C@H]1c2ccccc2CC[C@@H]1N1CCC[C@@H](N)C1 (racemic) [Example 34, (R)-1-[rac-trans-(1,2)-1-(2,6-dimethoxyphenoxy)-1,2,3,4-tetrahydronaphthalen-2-yl]piperidin-3-ylamine]
COc1cccc(F)c1O[C@H]1c2ccccc2CC[C@@H]1N1CCC[C@@H](N)C1 (racemic) [Example 44, (R)-1-[rac-trans-(1,2)-1-(2-fluoro-6-methoxyphenoxy)-1,2,3,4-tetrahydronaphthalen-2-yl]piperidin-3-ylamine]
Clc1cc(Cl)c2c(c1)[C@H](Oc1ccc(-n3cncn3)cc1)[C@@H](N1CCOCC1)C2 (racemic) [Example 549, 4-[rac-trans-(1,2)-4,6-dichloro-1-(4-[1,2,4]triazol-1-ylphenoxy)indan-2-yl]morpholine]
CN(C)Cc1ccc(O[C@H]2c3ccccc3CC[C@@H]2N2CCC[C@H](N)C2)cc1 (racemic) [Example 177, (S)-1-[rac-trans-(1,2)-1-(4-dimethylaminomethylphenoxy)-1,2,3,4-tetrahydronaphthalen-2-yl]piperidin-3-ylamine]
CC(=O)Nc1cccc(OC2c3ccccc3CC2N2CC[C@@H](N3CCCC3)C2)c1 (mixture of isomers) [Example 670, N-[rac-trans-(1,2)-3-((R)-2-[1,3′]bipyrrolidinyl-1′-ylindan-]

IC50, < 1 µM:
Cn1ccn(-c2cccc(O[C@H]3c4cc(Cl)cc(Cl)c4C[C@@H]3N3CCNCC3)c2)c1=O (racemic) [Example 257, 1-[3-(rac-trans-(1,2)-4,6-dichloro-2-piperazin-1-ylindan-1-yloxy)phenyl]-3-methyl-1,3-dihydroimidazol-2-one]
CS(=O)(=O)c1ccc(O[C@H]2c3cc(Cl)cc(Cl)c3C[C@@H]2N2C[C@H]3CNC[C@H]3C2)cc1 [Example 3, 2-[trans-(1S,2S)-4,6-dichloro-1-(4-methanesulfonylphenoxy)indan-2-yl]octahydropyrrolo[3,4-c]pyrrole]
Cn1ccn(-c2ccc(Cl)c(O[C@H]3c4cc(Cl)cc(Cl)c4C[C@@H]3N3CC[C@@H](O)C3)c2)c1=O [Example 335, 1-{4-chloro-3-[(1S,2S)-4,6-dichloro-2-((R)-3-hydroxypyrrolidin-1-yl)indan-1-yloxy]phenyl}-3-methyl-1,3-dihydroimidazol-2-one]
NS(=O)(=O)c1ccc(O[C@@H]2c3ccccc3C[C@H]2NC2CCCC2)c(F)c1 (racemic) [Example 460, 4-(2-cyclopentylaminoindan-1-yloxy)-3-fluorobenzenesulfonamide]
Cc1nnc(C)n1-c1ccc(O[C@H]2c3cc(F)cc(F)c3C[C@@H]2N2CC[C@@H](O)C2)c(Cl)c1 [Example 109, (R)-1-{(1S,2S)-1-[2-chloro-4-(3,5-dimethyl-[1,2,4]triazol-4-yl)phenoxy]-4,6-difluoroindan-2-yl}pyrrolidin-3-ol]

IC50, 1 to 10 µM:
c1cc(O[C@@H]2c3ccccc3C[C@H]2N2C[C@H]3CNC[C@H]3C2)cc(N2CCCCC2)c1 (racemic) [Example 15, 2-[rac-trans-(1,2)-1-(3-piperidin-1-ylphenoxy)indan-2-yl]octahydropyrrolo[3,4-c]pyrrole]
NS(=O)(=O)c1ccc(O[C@H]2c3c(Cl)cccc3C[C@@H]2N2CCCC2)cc1 (racemic) [Example 476, 4-(rac-trans-(1,2)-7-chloro-2-pyrrolidin-1-ylindan-1-yloxy)benzenesulfonamide]
Cc1c(Cl)cccc1O[C@@H]1c2ccccc2C[C@H]1N1C[C@H]2CNC[C@H]2C1 (racemic) [Example 6, 2-[rac-trans-(1,2)-1-(3-chloro-2-methylphenoxy)indan-2-yl]octahydropyrrolo[3,4-c]pyrrole]
N[C@H]1CCCN([C@@H]2Cc3ccccc3[C@H]2Oc2ccc(-n3ccnc3)cc2)C1 (racemic) [Example 181, (S)-1-[rac-trans-(1,2)-1-(4-imidazol-1-ylphenoxy)indan-2-yl]piperidin-3-ylamine]
CC(=O)Nc1cccc(O[C@@H]2c3cc(Cl)cc(F)c3C[C@H]2N2CCCC2)c1 (racemic) [Example 660, N-[3-(rac-trans-(1,2)-6-chloro-4-fluoro-2-pyrrolidin-1-ylindan-1-yloxy)phenyl]acetamide]
O=C1CNC(=O)N1c1ccc(Cl)c(O[C@H]2c3cc(Cl)cc(Cl)c3C[C@@H]2N2CC[C@@H](O)C2)c1 [Example 433, 3-{4-chloro-3-[(1S,2S)-4,6-dichloro-2-((R)-3-hydroxypyrrolidin-1-yl)indan-1-yloxy]phenyl}imidazolidine-2,4-dione]
O=C1CNC(=O)N1c1ccc(Cl)c(O[C@H]2c3cc(Cl)cc(F)c3C[C@@H]2N2CC[C@@H](O)C2)c1 [Example 438, 3-{4-chloro-3-[(1S,2S)-6-chloro-4-fluoro-2-((R)-3-hydroxypyrrolidin-1-yl)indan-1-yloxy]phenyl}imidazolidine-2,4-dione]
NC1CCN([C@@H]2Cc3ccccc3[C@H]2Oc2ccc3cc[nH]c3c2)C1 (mixture of isomers) [Example 262, 1-[rac-trans-(1,2)-1-(1H-indol-6-yloxy)indan-2-yl]pyrrolidin-3-ylamine]
Cn1ccn(-c2ccc(O[C@H]3c4cc(Cl)cc(F)c4C[C@@H]3NC3CCCC3)c(F)c2)c1=O [Example 755, 1-[4-(trans-(1S,2S)-6-Chloro-2-cyclopentylamino-4-fluoro-indan-1-yloxy)-3-fluoro-phenyl]-3-methyl-1,3-dihydro-imidazol-2-one]
CCCc1ccc(NC(C)=O)cc1O[C@H]1c2ccccc2CC[C@@H]1N1CCC[C@@H](N)C1 (racemic) [Example 675, N-{3-[rac-trans-(1,2)-2-((R)-3-aminopiperidin-1-yl)-1,2,3,4-tetrahydronaphthalen-1-yloxy]-4-propylphenyl}acetamide]
